Laboratory results reported in patent US12042478B2, “(R)-2-[(2H-1,3-benzodioxol-5-yl)methyl]pyrrolidine and processes for preparation, compositions and uses thereof” (Pharmala Biotech Inc., priority 2022, dated 2024).

Experiments:
[1] = tested on: C57 and BTBR mice; assay: Radiotelemetry of home cage locomotor activity; type: in vivo, mouse; conditions: for locomotor stimulant effects: IP, C57 and BTBR mice
Procedure: The radiotelemetry assay was conducted in adult male C57 and BTBR mice (n=6 per group) in a dedicated testing room where ambient light, sound, and human contact were tightly controlled.
Prior to surgical implantation of radiotelemetry probes, mice received 3 mg/kg meloxicam (IP), and anesthesia was induced with 4% inhaled isoflurane and maintained with 1-3% isoflurane (as needed) throughout the procedure at a flow rate of 1.5 litres/minute. The abdominal area of each animal was treated with depilatory cream, then sanitized with 3 alternating scrubs with iodine and alcohol. A rostral-caudal cut approximately 1.5 cm in length was made with sterile skin scissors, providing access to the intraperitoneal cavity. A cylindrical glass-encapsulated radiotelemetry probe (model ER-4000 E-Mitter, Mini Mitter, Bend, OR, USA) was then inserted. These probes measure 15.5 mm×6.5 mm and weigh approximately 1 gram. Incisions were closed (skin layer and muscle layer separately) using reverse cutting 5-0 Vicryl absorbable sutures for the muscle layer and 5-0 nylon suture material for the skin layer. Surgeries were carried out at least 7 days before initiation of experimental conditions, allowing time for incisions to heal and for animals to recover normal body weights. Following surgery, all implanted mice were individually housed in Plexiglas cages within the telemetry room for the duration of all experiments. Implanted transmitters produce activity- and temperature-modulated signals which are sent to a receiver (model ER-4000 Receiver, Mini Mitter Co., Inc.) underneath each cage. Following use, telemetry probes were removed from carcasses, wiped with alcohol swabs, and stored in the disinfectant solution until re-use.
At least 7 days after surgical implantation of radiotelemetry probes, mice in their individual home cages were placed atop a telemetry energizer/receiver, which powers probes and transmits their data to an interfaced computer. […]

[2] = tested on: C57 and BTBR mice; assay: Social preference procedure: sociability test; type: in vivo, mouse; conditions: 1 mg/kg IP
Procedure: All drugs were dissolved in physiological 0.9% saline and administered at a constant volume of 1 ml/100 g body weight. Because all drugs utilized in these studies were synthesized as hydrochloride (HCl) salts, they were weighed as salts prior to the preparation of all solutions. All drugs at all concentrations are readily dissolved in an aqueous solution at normal pH. Injections of all drugs were administered intraperitoneally (IP) to mimic pharmacokinetic parameters typical of oral administration, without the behaviour-impairing effects of gavage stress.
This assay was conducted in adult male C57 and BTBR mice (n=6 per group) in a dedicated conditioning room where ambient light, sound, and human contact were tightly controlled.
Social preference chambers consisted of two polycarbonate boxes (13.5 cm wide×22.5 cm tall×31.0 cm deep), floored with rough-textured black ABS plastic, and connected to one another by a 1.25″ PVC T-junction. An infrared photobeam emitter/detector array was mounted at each intersection of the T-junction and each preference compartment, and as a mouse traversed the apparatus, it would break the photobeam upon entry to or exit from each preference compartment. Beam breaks started or stopped a counter on an interfaced computer, allowing automated collection of time spent in each compartment. At the end of each test, data were reported as time (in seconds) spent in each compartment, the number of entries into each compartment, and the average time spent in each compartment following an entry. Social preference tests were conducted in an iterative manner, with each test subject completing four distinct phases as described below. Between testing sessions, chambers were sanitized by wiping the insides with a disinfectant product provided by the UAMS Department of Laboratory Animal Medicine. At the end of the week (upon completion of all phases of the procedure), each apparatus was disassembled and all parts were sanitized. No food or water were available during social preference sessions, but were available in the home cage immediately afterwards.
A single sociability session occurred the day after the novelty preference test, where one compartment contained a wire mesh cup with a dummy mouse inside while the other compartment contained a male NIH Swiss stranger mouse inside the previously empty cup (see FIG. 4). […] The position of the dummy mouse (left or right compartment) remained the same for each subject as during the novelty test the day before, thereby counterbalancing the position of the stranger mouse across subjects. NIH Swiss stranger mice were similar in mass and appearance to the dummy PVC mice, and were housed separately from the experimental subjects (C57 and BTBR mice) in the colony facility. The first time the experimental subjects ever encountered the stranger mice was when they entered the compartment where they were contained. During this session, mice were weighed, administered the same injection as the day before, and returned to their home cage for a 30 min pretreatment period. Mice were then introduced into the T-junction and allowed to explore both preference compartments for 15 minutes. Sociability tests always occurred on Wednesdays or Thursdays to prevent any weekend testing.

[3] = biological target: DAT (Homo sapiens, UniProt Q01959); assay: QSAR model predicted IC50, DAT; conditions: ratio = 1/DAT IC50:1/SERT IC50, from predicted IC50
Procedure: In silico studies (QSAR and docking) are useful tools to understand drug mechanisms, and they are relatively cheaper and faster than experiments. A QSAR model was created for each monoamine transporter. Additionally, the docking properties of phenethylamines were investigated.
QSAR: DAT, SERT and NET IC50 values were collected from the literature for 73 phenethylamines. Three different software's were used for descriptor calculations, and almost 2000 descriptors were calculated. Highly correlated descriptors were eliminated before multi-linear regression (MLR) analysis. All descriptors were merged with experimental inhibition values in QSARiNS software. The multi-Criteria Decision-Making tool of QSARiNS was used to pick the best model.
The predicted IC^50 (mM) values of the test molecules generated based on the QSAR developed as described above are presented in Table 4.

[4] = tested on: C57 and BTBR mice; assay: Tail cuff blood pressure monitoring (CODA non-invasive system); type: in vivo, mouse; conditions: for toxicity (blood pressure) relative to racemic MDMA: IP
Procedure: The 8 chamber CODA™ Non-invasive blood pressure system was set up to monitor the blood pressure of C57 and BTBR mice. Mice were habituated to restraint, saline injection (IP), and tail-cuff pressure monitoring for at least three days before drug administration. Across days, groups of habituated mice were injected IP with increasing doses of test drug, in this case (R)-I, (S)-I and (R/S)-I, then returned to the home cage for 30 min. Tail cuff pressure monitoring then determined effects on systolic, diastolic, and mean arterial pressure in restrained C57 and BTBR mice in sessions lasting ˜30 min.
In the tail cuff pressure monitoring, an occlusion tail cuff was inflated to impede the blood flow to the tail. The cuff was deflated slowly, and a second tail cuff, incorporating the VPR sensor, measured the physiological characteristics of the returning blood flow. As the blood returned to the tail, the VPR sensor cuff measured the tail swelling resulting from arterial blood flow pulsations. Systolic blood pressure was automatically measured at the first appearance of tail swelling. Diastolic blood pressure was automatically measured when the increasing rate of swelling ceased in the tail.

Chain of DAT (Q01959 whole entry, species assumed): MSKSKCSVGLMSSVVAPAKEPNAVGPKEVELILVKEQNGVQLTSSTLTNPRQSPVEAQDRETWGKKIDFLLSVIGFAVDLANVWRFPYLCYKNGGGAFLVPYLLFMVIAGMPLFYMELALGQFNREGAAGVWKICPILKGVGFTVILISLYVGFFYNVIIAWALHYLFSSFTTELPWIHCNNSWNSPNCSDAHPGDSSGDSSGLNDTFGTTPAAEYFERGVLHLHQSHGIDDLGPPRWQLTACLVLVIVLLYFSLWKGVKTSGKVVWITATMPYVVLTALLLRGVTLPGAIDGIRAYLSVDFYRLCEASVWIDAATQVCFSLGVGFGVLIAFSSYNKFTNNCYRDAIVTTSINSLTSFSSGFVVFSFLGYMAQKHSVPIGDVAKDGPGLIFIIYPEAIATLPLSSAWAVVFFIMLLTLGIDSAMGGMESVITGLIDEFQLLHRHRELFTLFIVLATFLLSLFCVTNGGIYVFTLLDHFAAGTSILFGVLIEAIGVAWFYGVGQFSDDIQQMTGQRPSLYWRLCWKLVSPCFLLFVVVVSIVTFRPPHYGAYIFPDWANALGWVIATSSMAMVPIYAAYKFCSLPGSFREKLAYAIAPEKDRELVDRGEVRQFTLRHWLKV

Row | SMILES | locomotor stimulant effects ([1]; any dose tested) | sociability (time spent with stranger mouse) ([2]; BTBR mice) | sociability (time spent with stranger mouse) ([2]; C57 mice) | DAT/SERT (calculated) [3] | systolic and diastolic blood pressure ([4]; 10 mg/kg i.p.) | toxicity (blood pressure) relative to racemic MDMA [4] | locomotor effect ([1]; 56 mg/kg i.p., BTBR mice, significantly different from saline) | locomotor stimulant effects ([1]; doses as high as 30 mg/kg) | cardiovascular effects (systolic, diastolic, mean arterial pressure) ([4]; 10 mg/kg and 30 mg/kg IP, C57 and BTBR mice) | blood pressure rise relative to racemic MDMA and S-methamphetamine ([4]; both strains)
1 | c1cc2c(cc1C[C@@H]1CCCN1)OCO2 [(S)-I, (S)-2-[(2H-1,3-benzodioxol-5-yl)methyl]pyrrolidine] | neither strain exhibited locomotor stimulant effects | strong response in sociability | slight increase in time spent with the stranger mouse | 0.043 | higher systolic and diastolic blood pressure than (R)-I | significantly less toxic |  |  |  | 
2 | c1cc2c(cc1C[C@H]1CCCN1)OCO2 [(R)-I, (R)-2-[(2H-1,3-benzodioxol-5-yl)methyl]pyrrolidine] |  | minor increase in the sociability response | no impact | 0.022 |  | significantly less toxic | locomotor effect stronger than C57 mice at the same dose | did not have significant locomotor stimulant effects | lower impact on cardiovascular effects than (S)-I | significantly lower
